Source: patent publication US20220241314A1, “COMPOSITIONS AND METHODS FOR TREATMENT OF HEPATITIS B VIRUS INFECTION” (priority 2019, published 2022)
{ppp} = triphosphate

Experiments:
HBV cccDNA [1] = test: Subcellular compartment analysis of PF-RC DNA and cccDNA (synchronous infection, cell fractionation); type: cell-based, HBV (Genotype D); conditions: HepG2-hNTCP, treated from time 0 through 3 dpi; F7 10 μM, poly-U/UC PAMP 100 ng/ml
Procedure: FIG. 4A-4D illustrate subcellular compartment analysis of antiviral activity. (4A) and (4C) Scheme of HBV infection with F7 treatment (4A) or poly-U/UC PAMP treatment (4C). HepG2-hNTCP cultures were inoculated with HBV at moi 1000 Geq/cell for 24 hr. On treatment day 0 the cultures received F7 (10 μM) or poly-U/UC PAMP (100 ng/ml). Cells were harvested for production of Hirt extracts at each time point shown through three days. Parallel cultures were harvested for Western blot analysis to monitor Lamin B1 and Calnexin as markers of […] and cytosol respectively. (4B) and (4D) DNA was analyzed by Southern blot using HBV-specific DNA probe. Viral protein-free DNAs (protein-free Relaxed Circular DNA [PF-RC DNA]and cccDNA) are indicated. The positions of mass markers are indicated. Lower panels show Western blot of Lamin B1 and Calnexin abundance.
Cells were inoculated with HBV for 6 hours at 4° C., then the inoculum was removed, cells rinsed and placed in 37° C. media to initiate synchronous infection (time 0), at which time the cells were treated with F7 (FIG. 4A), or poly-U/UC PAMP (FIG. 4C) through 3 dpi. Whole cell (W), nuclear (N), and cytoplasmic (C) extracts were harvested over the time course, at 3 and 6 hours post-infection, and daily over 1-3 dpi, and PF-RC and cccDNA abundance were analyzed by Southern blot. […] For poly-U/UC PAMP treatment, cells were also harvested over a similar time course (see FIG. 4C).
HBV entry assay and cell fractionation: Cells were inoculated with HBV in presence of 4% PEG for 6 hours at 4°C. To assess HBV entry, inoculum was removed by washing with PBS that included proteinase K and cells were shifted to 37° C. post-attachment. After incubation and treatment, the cells were lysed in a hypotonic buffer (100 MM HEPES, 15 mM MgCl2, 100 mM KCL and Nonidet P-40), and homogenized with a dounce homogenizer. The cytoplasmic fraction was separated from nuclei pellet by centrifugation (6000×g for 5 min at 4° C.). Nuclei pellet was resuspended in extraction buffer (20 mM HEPES, 15 mM MgCl2, 420 mM NaCl, 0.2 mM EDTA and 25% (v/v) Glycerol including DTI and protease inhibitor cocktail). Each cellular fraction was mixed with 1% SDS (v/v) and protein-free DNA was extracted using the Hirt extraction method.

in vitro [2] = conditions: human, HepG2-hNTCP cells (HepG2-C3A-hNTCP)
Procedure: (§1) HepG2-NTCP Cells (10A and 10C), dHepaRG (10B and 10D), and PHH (10E) were treated with increasing doses of F7 or poly-U/UC PAMP for 72 hours. Cell viability was determined concurrently by measuring ATP content, with values normalized to mock-treated cells. Graph represents the mean of triplicated samples in each of 3 independent experiments, with error bars showing standard deviation.ns=non-significant.
(§2) To determine the values of 90% of maximal Inhibitory concentration (IC90) and half-maximal Inhibitory concentration (IC50), as well as the cytotoxic concentration, CC50, of F7 and poly-U/UC, PAMP, two different cell lines were used, HepG2-hNTCP and dHepaRG cells.
(§3) Cytotoxicity assays: Cytotoxicity was evaluated from cultures of HepG2-C3A -hNTCP and dHepaRG cells using CellTiter-Glo as described (Edwards, T. C., et al. (2019). Inhibition of HBV replication by N-hydroxvisoquinolinedione and N-hydroxypyridinedinone ribonuclease H inhibitors. Antiviral research 164, 70-80). […] Cytotoxicity of each was measured with the ATP content as a measure of cell viability using the CellTiter-Glo™ reagent (Promega) per manufacturer's instructions. The plates were read using a luminescence plate reader (Berthold) and the relative luminescence unit (RLU) data generated from each well was calculated as percent signal compared to the untreated control. […]

in vitro [3] = conditions: human
Procedure: as §1, §2, §3

HBV cccDNA [4] = test: cccDNA levels in HBV-infected primary human hepatocytes (Southern blot); type: cell-based, HBV (Genotype D); conditions: PHH, HBV 200 Geq/cell, single treatment at 1 dpi, harvested 3 dpi
Procedure: FIGS. 7A-7C illustrate suppression of cccDNA in primary human hepatocytes. (7A) PHH were cultured alone or were treated with 100 ng/ml X-RNA (X100), or 50 ng/ml (P50), 100 ng/ml (P100) or 200 ng/ml (P200) poly-U/UC PAMP or were infected with SenV (control) and harvested 24 and 72 hours later. The cell lysates were analyzed by immunoblot for p-IRF3 (S386 phosphorylated, active IRF3), IRF3 (total IRF3), IFIT1, and Actin (control) using respective antibodies. (7B) PHH cultures were cultured alone or were treated with 100 ng/ml X-RNA (X100), or 100 ng/ml (P100) or 200 ng/ml (P200) poly-U/UC PAMP or were infected with SenV (control) and harvested 24 and 72 later. Cells were harvested, RNA extracted and analyzed by RT-qPCR to measure the expression levels of the indicated innate immune genes normalized to the level of GAPDH expression. Values are shown on the heat map as mean fold induction over nontreated cells from three independent experiments. (7C) PHH cultures were inoculated with HBV at moi of 200 Geq/cell. […] Three days later the cells were harvested, DNA isolated by isolated Hirt extraction, and analyzed by Southern blot using a HBV-specific probe. […]
PHH cultures were treated over a poly-U/UC PAMP dose-response and assessed innate immune activation. […]

dHepaRG cells = test: Cytotoxicity, cellular ATP content (CellTiter-Glo), dHepaRG; conditions: 72 hours (FIG. 10D), 23.49 nM = 800 ng/ml
Procedure: as §1, §2, §3

Row | Molecule | PF-RC DNA in subcellular fractions, Southern blot (HBV cccDNA [1]) | cccDNA accumulation, Southern blot (HBV cccDNA [1]) | CC50 at 72 h (in vitro [2]) [µM] | CC50 at 72 h (in vitro [3]) [µM] | cccDNA levels (HBV cccDNA [4]) | CC50 (dHepaRG cells) [µM]
1 | O=C(Nc1ccc2nc(NC(=O)c3ccc4ccccc4c3)sc2c1)c1ccccc1 [F7, N-(6-benzamido-1,3-benzothiazol-2-yl)naphthalene-2-carboxamide] | accumulation was reduced after 2-3 dpi | delayed and reduced | > 40 | > 40 |  | 
2 | poly-U/UC PAMP: ~100 nt PAMP motif from the HCV genome comprising 5′ppp and the poly U/UC region, recognized by RIG-I; formulated in liposome (nucleic acid, RNA, 5' {ppp}, backbone and methylation of C not given here; formulated in liposome, ~100 nt PAMP motif from the HCV genome comprising 5′ppp and the poly U/UC region, recognized by RIG-I; formulated in liposome) GGCCAUCCUGUUUUUUUCCCUUUUUUUUUUUCUUUUUUUUUUUUUUUUUUUUUUUUUUUUUUUUUUCUCCUUUUUUUUUCCUCUUUUUUUCCUUUUCUUUCCUUU | Nuclear PF-RC DNA levels were reduced | reduction of cccDNA |  |  | suppressed cccDNA levels in the infected PHH to levels similar to CsA treatment | > 0.0235
